According to US5401777A, “Use of preparations of curcuma plants” (priority 1992, dated 1995):

Assays:
[1] = tested on: histamine-induced stomach ulcers; details: guinea pigs; Bhatia et al. 1964; cited from earlier work
[2] = tested on: experimental stomach ulcers; details: rats; cited from earlier work
[3] = tested on: stomach mucosa; details: oral, daily doses of 100 mg/kg over 6 days; Prasad et al. 1976; cited from earlier work
[4] = tested on: formation of peroxidized arachidonic acid products; assay: inhibition of Fe/ascorbate-induced formation of peroxidized arachidonic acid products in the cell-free system; type: biochemical
Source text: (d) the formation of peroxidized arachidonic acid products in the cell-free system with an IC50 of approx. 1 μmol/l.

Structure (SMILES): COc1cc(/C=C/C(=O)CC(=O)/C=C/c2ccc(O)c(OC)c2)ccc1O [curcumin]
- protective effect against histamine-induced stomach ulcers [1]: did not find any protective effect
- effect on experimental stomach ulcers [2]: does not cure
- effect of high doses on the stomach mucosa [3]: damaged the stomach mucosa
- concentration in which the antioxidative effect is already achieved [4]: 1 μm
